Reference: PubChem BioAssay (NCI)
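Protocol summary: plate cells (96-well), add compound at 5 concentrations, incubate 48 h, interpolate endpoints linearly. At the TGI there is no net growth.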

Assays:
Test in all cases: growth of human tumour cells (NCI), 48 h
DU-145 prostate = test system: DU-145 prostate
SNB-75 CNS = test system: SNB-75 CNS
MDA-N = test system: MDA-N
NCI-H23 lung = test system: NCI-H23 lung
TK-10 renal = test system: TK-10 renal
NCI/ADR-RES ovarian = test system: NCI/ADR-RES ovarian
LOX IMVI melanoma = test system: LOX IMVI melanoma
M14 melanoma = test system: M14 melanoma
MCF7 breast = test system: MCF7 breast
OVCAR-3 ovarian = test system: OVCAR-3 ovarian
PC-3 prostate = test system: PC-3 prostate

| Structure (SMILES) | TGI (DU-145 prostate) [µM] | TGI (SNB-75 CNS) [µM] | TGI (MDA-N) [µM] | TGI (NCI-H23 lung) [µM] | TGI (TK-10 renal) [µM] | TGI (NCI/ADR-RES ovarian) [µM] | TGI (LOX IMVI melanoma) [µM] | TGI (M14 melanoma) [µM] | TGI (MCF7 breast) [µM] | TGI (OVCAR-3 ovarian) [µM] | TGI (PC-3 prostate) [µM] |
| --- | --- | --- | --- | --- | --- | --- | --- | --- | --- | --- | --- |
| O=C(/C=C/c1ccc(O)c(O)c1)c1cc(O)cc(O)c1 | 44.3 | 34.5 | 20.5 | 26.4 | 39.7 | 47.7 | 18.9 | 26.9 | 12.7 | 26.4 | 28.5 |
| O=c1oc2cc(O)ccc2c(O)c1C(c1cccnc1)c1c(O)c2ccc(O)cc2oc1=O | > 100 | > 100 | > 100 | > 100 | > 100 | > 100 | > 100 | > 100 | > 100 | > 100 | > 100 |
| CN(C)c1ccccc1CN1CCCN(Cc2ccccc2N(C)C)C1c1ccncc1 | 31.5 | 32.1 | 23.8 | 43 | 28.4 | 58 | 28.4 | 8.62 | 29.6 | 28 | > 100 |
| CCOC(=O)NC(NC1=NCCS1)(C(=O)OCC)C(F)(F)F (stereo not drawn) | > 100 | > 100 | > 100 | > 100 | > 100 | > 100 | > 100 | > 100 | > 100 | > 100 | > 100 |
| COC1(OC)CC(CO)(CNc2cc(Cl)nc(N)n2)C1 | > 100 | – | > 100 | > 100 | > 100 | > 100 | > 100 | – | > 100 | > 100 | > 100 |
| CCSc1cc(=O)n(C)c(=O)n1C | > 100 | > 100 | > 100 | > 100 | > 100 | > 100 | > 100 | > 100 | > 100 | > 100 | > 100 |
| Cn1c2ccccc2c2c(=O)[nH]c(=O)[nH]c21 | > 100 | > 100 | > 100 | > 100 | > 100 | > 100 | > 100 | > 100 | > 100 | > 100 | – |
| O=C(O)c1cnc2[nH]ccn2c1=O | > 100 | > 100 | > 100 | > 100 | > 100 | > 100 | – | > 100 | > 100 | > 100 | > 100 |
| Cc1cccnc1/N=C/c1c(O)n(C)c(=O)[nH]c1=O | > 100 | > 100 | > 100 | > 100 | > 100 | – | > 100 | > 100 | > 100 | > 100 | > 100 |
| COc1ccc2sc(-n3nc4ccccc4c3Nc3nc4ccc(OC)cc4s3)nc2c1 | 17.9 | 9.92 | – | 5.25 | 11.8 | 10.4 | 24.3 | 35.8 | 42 | 7.45 | 17.4 |
| CCOC(=O)C(C(=S)Nc1ccccc1)c1nn2c(=O)cc(C)nc2s1 (stereo not drawn) | > 100 | 60 | – | 89.5 | 86.8 | 67.2 | 30.4 | 57.1 | 37.8 | 63.2 | 66.3 |
| CCN1CCN(c2nc3ccc([N+](=O)[O-])cc3nc2C(=O)c2ccccc2)CC1 | 33.2 | – | 33.9 | 34.4 | 34.2 | 29.2 | 17.8 | 25.7 | 34.8 | 30.6 | 32.3 |
| N#Cc1c(N)sc2c1-c1ccccc1OC2 | > 100 | – | 67.1 | > 100 | > 100 | > 100 | > 100 | > 100 | > 100 | 61.7 | > 100 |
| COC(=O)/C=C/c1ccc2c(c1)CC1(C2)Cc2cc3c(cc2C1=O)CCC3 (stereo not drawn) | > 100 | 71.3 | > 100 | – | > 100 | > 100 | > 100 | > 100 | > 100 | 43.7 | > 100 |
| O=C1CCC(=O)N1n1c(Cc2ccc(Cl)cc2)n[nH]c1=O | > 100 | – | > 100 | > 100 | > 100 | > 100 | > 100 | > 100 | > 100 | > 100 | > 100 |
| COc1ccc(/C=C2\N=C(c3ccccc3)N(N=C3NC(=O)CC(=O)N3)C2=O)cc1 | > 100 | > 100 | > 100 | > 100 | > 100 | > 100 | – | > 100 | > 100 | > 100 | > 100 |
| Nc1nc(N)c2ncn(Cc3ccccc3CCl)c2n1 | > 100 | > 100 | – | > 100 | > 100 | > 100 | – | > 100 | > 100 | > 100 | > 100 |
| O=C1[C@@H]2[C@@H](c3ccccc3)[C@]2(Cl)C(=O)[C@H]2[C@H](c3ccccc3)[C@@]12Cl | > 100 | > 100 | – | > 100 | > 100 | > 100 | > 100 | > 100 | > 100 | > 100 | > 100 |
| O=C1/C(=C/c2cccc(Br)c2)CSC/C1=C\c1cccc(Br)c1 | 24.3 | – | 6.98 | 9.03 | 16.8 | 25.5 | 4.82 | 6.14 | 20.5 | 9.98 | 10.4 |
| CCCCCCOP(=O)(OCCCCCC)C(NC(=O)OCC)(C(F)(F)F)C(F)(F)F | > 100 | > 100 | > 100 | – | > 100 | > 100 | 56.1 | > 100 | > 100 | > 100 | > 100 |
